The record followed here is patent publication US5824692A (priority 1995, dated 1998).

In the assay the test system is dopamine release, synaptosomes from the striatal area of rat brain. Put plainly: Dopamine release from rat striatal synaptosomes. It counts as biochemical, rat (Sprague-Dawley). The conditions noted are these: [3H]-dopamine release, relative to (S)-(-)-nicotine. How it is done:
Determination of Dopamine Release
Dopamine release was measured by preparing synaptosomes from the striatal area of rat brain obtained from Sprague-Dawley rats generally according to the procedures set forth by Nagy et al., J. Neurochem., Vol. 43, pp. 1114-1123 (1984). Striata from 4 rats were homogenized in 2 ml of 0.32M sucrose buffered with 5 mM HEPES (pH 7.5), using a glass-Teflon tissue grinder. The homogenate was diluted to 5 ml with additional homogenization solution and centrifuged at 1,000 x g for 10 min. This procedure was repeated on the new pellet and the resulting supernatant was centrifuged at 12,000 x g for 20 min. A 3 layer discontinuous Percoll gradient consisting of 16 percent, 10 percent and 7.5 percent Percoll in HEPES-buffered sucrose was made with the final pellet dispersed in the top layer. After centrifugation at 15,000 x g for 20 min., the synaptosomes were recovered above the 16 percent layer with a Pasteur pipette, diluted with 8 ml of perfusion buffer (128 mM NaCl, 2.4 mM KCl, 3.2 mM CaCl2, 1.2 mM KH2 PO4, 1.2 mM MgSO4, 25 mM HEPES pH 7.4, 10 mM dextrose, 1 mM ascorbate, 0.01 mM pargyline), and centrifuged at 15,000 x g for 20 min. The new pellet was collected and re-suspended in perfusion buffer. The synaptosome suspension was incubated for 10 min. at 37° C. [^3 H]-Dopamine (Amersham, 40-60 Ci/mmol) was added to the suspension to give a final concentration of 0.1 uM, and the suspension was incubated for another 5 min. Using this method, 30 to 90 percent of the dopamine was taken up into the synaptosomes, as determined by scintillation counting following filtration through glass fiber filters soaked with 0.5 percent polyethyleneimine. A continuous perfusion system was used to monitor release following exposure to each ligand. Synaptosomes were loaded onto glass fiber filters (Gelman type A/E). Perfusion buffer was dripped onto the filters (0.2-0.3 ml/min.) and pulled through the filters with a peristaltic pump. Synaptosomes were washed with perfusion buffer for a minimum of 20 min. before addition of the ligand. After the addition of 0.2 ml of a solution containing various concentrations of ligand, the perfusate was collected into scintillation vials at 1 min. intervals and the dopamine released was quantified by scintillation counting. Peaks of radioactivity released above background were summed and the average basal release during that time was subtracted from the total.
Consider `NCC/C=C/c1cncnc1.O=C(O)/C=C/C(=O)O` [Sample No. 1, (E)-4-(5-pyrimidinyl)-3-butene-1-amine monofumarate], for which the “Dopamine Release Emax” value is listed as 113 % nicotine.

Consider `CNCC/C=C/c1cncnc1` [Sample No. 2, (E)-N-methyl-4-(5-pyrimidinyl)-3-butene-1-amine], for which the “Dopamine Release Emax” value was determined as 77 % nicotine.

For `COc1cncc(/C=C/CCN)c1` [Sample No. 3, (E)-4-[3-(5-methoxypyridin)yl]-3-butene-1-amine monofumarate], the “Dopamine Release Emax” value amounted to 95 % nicotine.

For `CNCCC#Cc1cccnc1` [Sample No. 4, N-Methyl-4-(3-pyridinyl)-3-butyne-1-amine], the “Dopamine Release Emax” value is on record as 87 % nicotine.

Regarding `CNCC/C=C\c1cccnc1` [Sample No. 5, (Z)-metanicotine], the “Dopamine Release Emax” value worked out at 88 % nicotine.

For `CNCC/C=C/c1ccc(C)nc1` [Sample No. 6, (E)-N-methyl-4-[3-(6-methylpyrindin)yl]-3-butene-1-amine], the “Dopamine Release Emax” value amounted to 60 % nicotine.

Turning to `CN1CCC[C@H]1c1cccnc1` [Sample No. C-1, (S)-(-)-nicotine, reference compound], the “Dopamine Release Emax” value is recorded as 100 % nicotine.

For `CNCC/C=C/c1cccnc1` [Sample No. C-2, (E)-metanicotine, reference compound], the “Dopamine Release Emax” value amounted to 80 % nicotine.
